Assay results taken from patent publication US20150083146A1, “PERSONAL VAPORIZER LIQUID FOR E[…]-SOLUBLE COMPOUNDS AND RESINS” (Verso PV, LLC, priority 2013, published 2015).
Where a name gives a salt, the structure may show the parent alone.

Columns and labels:
[1] = Emulsion stability (visual separation test; storage, sunlight, temperature); type: physicochemical; details: after mixing with heat and agitation; initial observation
Text: In some embodiments of the present invention, a stable emulsion containing oil-soluble compounds and/or resins in a liquid base is provided. The stable emulsion may be stored in a container suitable for delivery to a consumer. The stable emulsion may be provided in a vial, cartridge or other container. Preferably the container is air-tight. The stability of the emulsion may be measured or quantified by no visible separation after 30 days.
In this example, a series of liquid compositions were prepared and evaluated for their emulsion stability. Varying compositions were tested that utilized different lipid solubilizers (8 in total). The liquid base in these compositions was propylene glycol. Test samples (liquid compositions including cannabis extract) were subjected to a range of conditions: temperature, sunlight, extended storage, and varied ingredient concentration. Various types of cannabis extract were also tested. For each test sample, observations were noted about the color, viscosity, general visual appearance of each sample, and any changes seen over time.
Materials and Methods: Testing was performed in 20 ml glass scintillation vials. Mixing of the liquid base and lipid solubilizer was done entirely in borosilicate glassware, and ingredients were measured by mass using an AND EJ-610 balance. Samples were heated using a Scilogex MS7-H55O digitally controlled hot plate. Cannabis extract was produced using an Apeks closed-system solvent extractor running instrument grade propane. […]
Formula preparation: Formulas using lipid solubilizers were prepared in three concentrations: 0.1%, 0.5% and 1.0% by mass, in a solvent base of propylene glycol. […] Stock solutions were made of each of the eight lipid solubilizers at each of the three concentrations, producing a total of 24 different formulas at a quantity of approximately 500 ml each. […] After cooling the formula was ready for use. […]
Test Sample preparation: For each sample, the appropriate quantity of cannabis extract and liquid formula were added to a vial. […]

[2] = Viscosity rating of liquid compositions (cannabis extract emulsions in propylene glycol formulas); type: physicochemical; details: cannabis extract emulsion in propylene glycol
Procedure: The liquid composition comprising the oil-soluble compounds or resin should have a density and viscosity suitable for use in a personal vaporizer. […] For example, a liquid composition having a […] of about 100 cps, alternatively about 75 cps or less, alternatively about 50 cps or less, alternatively about 42 cps (the viscosity of propylene glycol) or more. The foregoing values can be combined to form a range. Viscosity values are determined at 25° C. using standard equipment for measuring viscosity of liquids.
Test Sample preparation: For each sample, the appropriate quantity of cannabis extract and liquid formula were added to a vial. The vial was placed on a hot plate at 85° C. until the extract melted. The vial was gently shaken to disperse the extract. Each of the formula recipes were tested with five concentrations of extract: 5%, 10%, 20%, 33%, and 50%, by mass. For example: to produce a 10% extract sample we placed 9.00 grams of one of the stock oil emulsifier formulas, and 1.00 grams of one of cannabis extracts in a 20 ml scintillation vial and applied heat. The components remained separate until heat and agitation are applied.
The viscosity of each sample is rated, in which “1” indicates lower viscosity, “2” indicates moderate viscosity, and “3” indicates higher viscosity.

| Compound | formation of a stable emulsion [1] | viscosity (in words) [2] |
| --- | --- | --- |
| CCOC(=O)CC(O)(CC(=O)OCC)C(=O)OCC [triethyl citrate, Triethyl Citrate] | appeared to perform adequately | – |
| Propylene Glycol Monolaurate [PG-12] | – | most viscous |
| CC(=O)OCC(COC(C)=O)OC(C)=O [triacetin, Triacetin] | appeared to perform adequately | – |
| CCCCCCCC(=O)OCC(O)CO (centres unmarked) [MCM C8, Glyceryl Caprylate] | – | least viscosity |
| CCCCCCCCCCCC(=O)OCC(O)CO (centres unmarked) [Monolaurin, Glyceryl Monolaurate] | effective and flavorless emulsifier | – |
